Data on 10 molecules can be found in patent US8138188B2, “Melanocortin type 4 receptor agonist piperidinoylpyrrolidines” (Pfizer Inc., priority 2006, dated 2012).

The nature of data set [1]: In vitro metabolism rate determination, human liver microsome (HLM) assay. Particulars: human liver microsomes, substrate 1 μM; read-out: HLM (intrinsic clearance). The format is in vitro ADME. From the text:
In vitro Metabolism Rate Determination (Human Liver Microsome (HLM); Rat Liver Microsome (RLM) Assay)
Many drugs are metabolised by the cytochrome P450 mono-oxygenase system. This enzyme is found in high concentrations in the liver and is bound to the endoplasmic reticulum of the hepatocyte. The enzyme system can be obtained in semi-purified state by the preparation of the hepatic microsomal fractions. Determining a compound's in vitro half-life in such a system provides a useful indicator of metabolic stability.
Methodology For In Vitro Rate Determination Using Hepatic & Supermix Microsomes
The method outlined below is for a total incubation volume of 1.5 ml.
1. The following mixture is prepared in a test tube:
2. Defrost microsomes at room temperature and add sufficient microsomes to give a final concentration of 0.5 nmol cytochrome P450/ml of incubation e.g. for a 1.5 ml incubation, the volume of microsomes to be added is:
[formula] 3. Add sufficient MilliQ water to give a total incubation volume of 1.425 ml. 4. Remove 237.5 μl of incubation mix and place in test tube for PNA positive control. Add 2.5 μl of PNA solution, whirlimix, and put tube into a rack in the thermostatically controlled shaking water bath 5. Remove 100 μl for no substrate control and dispense in test tube. Place test tube in a rack in the thermostatically controlled shaking water bath. 6. Add substrate to the incubation. The substrate should be at an initial concentration of 1 μM. The volume of substrate required in the remaining 1.162.5 ml incubation is calculated as follows:
[formula] • N.B. The volume of organic solvent added should not exceed 0.1% of the total incubation volume. 7. Remove 100 μl of incubation mix into test tube for no cofactor control. Whirlimix and put into a rack in the thermostatically controlled shaking water bath. 8. Pre-incubate the tube containing the incubation mix, also positive control and no cofactor tubes in the thermostatically controlled shaking water bath set at 37° C. for approx 5 min. 9. Add NADP to initiate reaction (75 μl to each 1.162.5 ml incubation mix, 12.5 μl to positive control tube and 5 μl to no substrate tube) and take first time point immediately. The PNA positive control, no cofactor control and no substrate tubes are incubated for the total incubation time. 10. Remove 100 μl aliquots up to 9 different sampling points from 0 to 60 min (usually 0, 3, 5, 10, 15, 20, 30, 45 & 60 min) and terminate reaction. Longer incubation times can be used, but, after 120 min the microsomes deteriorate. The reaction may be terminated by addition of organic solvent, acid or base. At the end of the incubation process the no cofactor and no substrate controls in a similar manner i.e. terminate with the same reagent. 11. PNA Positive Control Procedure: • After the final sample has been taken, remove the positive control and add 1 ml 20% TCA to this tube. Also prepare a tube containing 250 μl of a PNP standard at 50 μM, and add 1 ml 20% TCA. Whirlimix both tubes and leave for approx 5 min to allow the protein to precipitate. • Centrifuge both tubes for approx 5 min in an instrument set at 3500 rpm. Remove 1 ml of supernatant and place into clean test tubes, discard the remainder. • Add 1 ml 10M NaOH to the supernatant, whirlimix, and leave to stand for approx min. Blank spectrophotometer with distilled water at 400 nm then measure absorbance of the PNP standard against distilled water. The microsomal 4-nitroanisole O-demethylase activity is calculated as follows: Calculation of Results
[formula] • The activity value from the incubation MUST be equal to or greater than 85% of the mean value of the batch used for the incubation to be valid. If this criteria is not met, then the incubation must be repeated. 11. Analyse samples (including no cofactor and no substrate control) by a specific assay for the substrate to determine the disappearance kinetics. Analysis Of Data […]

The target of another data set is T1, CYP3A4 (Homo sapiens, UniProt P08684).
T1 construct: utilizes human liver microsomes together with isoform-specific clinical drug probes; from tissue; host or cells: human liver microsomes
T1 sequence (P08684 whole entry, canonical isoform): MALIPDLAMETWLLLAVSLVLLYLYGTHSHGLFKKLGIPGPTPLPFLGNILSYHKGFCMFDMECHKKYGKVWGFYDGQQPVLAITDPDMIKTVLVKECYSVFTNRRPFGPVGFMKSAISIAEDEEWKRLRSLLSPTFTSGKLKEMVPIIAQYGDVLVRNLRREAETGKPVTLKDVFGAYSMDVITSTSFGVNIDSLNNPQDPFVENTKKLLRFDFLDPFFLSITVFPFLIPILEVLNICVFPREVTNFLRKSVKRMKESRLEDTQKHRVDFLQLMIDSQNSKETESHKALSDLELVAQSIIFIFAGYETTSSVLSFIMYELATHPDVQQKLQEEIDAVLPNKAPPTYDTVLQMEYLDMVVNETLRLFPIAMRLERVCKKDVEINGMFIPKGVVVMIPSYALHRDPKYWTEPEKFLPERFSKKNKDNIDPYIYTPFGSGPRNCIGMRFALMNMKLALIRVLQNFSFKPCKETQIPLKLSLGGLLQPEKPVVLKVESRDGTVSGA
Put plainly: High density drug-drug interactions (DDI) 3 μM cocktail screen in human liver microsomes. It counts as in vitro ADME. Particulars: 3 uM test compound, pooled human liver microsomes, probe midazolam 2 μM; read-out: % Inhibition of 3A4 metabolism at 3 uM. How it is done:
High Density Drug-Drug Interactions (DDI) 3 μM Cocktail Screen
A drug interaction is a situation in which a substance affects the activity of another drug, i.e. the effects are increased or decreased, or together they produce a new effect that neither produces on its own. Drug interactions may be the result of various processes but a relatively common one is where one drug affects the pharmacokinetics of another by inhibiting the cytochrome P450 that metabolises it. Because of the importance of these phenomena, assessment of the DDI potential for new chemical entities (NCEs) is considered important early on in the drug discovery process.
The DDI cocktail screen in human liver microsomes (HLM) is run in a fully automated fashion and the aim of the screen is to provide a single-point assessment of the DDI potential of new chemical entity (NCE; tested at 3 μM) against the 4 primary cytochrome P450 enzymes, 1A2, 2D6, 2C9 and 3A4.
The substrate cocktail approach for P450 DDI utilizes human liver microsomes together with isoform-specific clinical drug probes and permits the simultaneous measurement of the inhibition of P450 1A2, 2C9, 2D6 & 3A4 activities in a single incubation. This is run in high throughput with simultaneous detection of metabolites by LC-MS/MS. This method has been thoroughly tested and evaluated using standard compounds.
Appearance of the metabolite of each substrate is measured over time in the presence and absence of the NCE (test compound/inhibitor) at a concentration of 3 μM. The compounds are assessed for their inhibitory potential as a percentage value and interpreted using the following scheme.
For orientation: Microsomes from liver hold many membrane-bound enzymes, among them those of drug oxidation.

A value given as a limit tells only on which side of the number the result lay.

By inhibition is commonly meant the share of the control response that was lost under treatment. Regarding `C[C@@H]1CN(C(=O)[C@@H]2CN(c3ccc(C#N)cn3)C[C@H]2c2ccc(Cl)cn2)C[C@H](C)[C@@]1(O)c1ccc(F)cc1` [Example 1, 6-[(3S,4S)-3-(5-Chloropyridin-2-yl)-4-{[(3R,4R,5S)-4-(4-fluorophenyl)-4-hydroxy-3,5-dimethylpiperidin-1-yl]carbonyl}pyrrolidin-1-yl]nicotinonitrile], the microsomal CLint at 1 μM in data set [1] was below 7 µL/min/mg. Also, the inhibition at 3 μM on CYP3A4 was determined as 54%.
For `C[C@@H]1CN(C(=O)[C@@H]2CN(c3ccc(C#N)nn3)C[C@H]2c2ccc(Cl)cn2)C[C@H](C)[C@@]1(O)c1ccc(F)cc1` [Example 2, 6-[(3S,4S)-3-(5-Chloropyridin-2-yl)-4-{[(3R,4R,5S)-4-(4-fluorophenyl)-4-hydroxy-3,5-dimethylpiperidin-1-yl]carbonyl}pyrrolidin-1-yl]pyridazine-3-carbonitrile], in that order: below 12 µL/min/mg and 64%.
In the case of `COc1ccc(N2C[C@@H](C(=O)N3C[C@@H](C)[C@](O)(c4ccc(F)cc4)[C@@H](C)C3)[C@H](c3ccc(Cl)cn3)C2)nn1` [Example 4, (3R,4R,5S)-1-{[(3S,4S)-4-(5-chloropyridin-2-yl)-1-(6-methoxypyridazin-3-yl)pyrrolidin-3-yl]carbonyl}-4-(4-fluorophenyl)-3,5-dimethylpiperidin-4-ol], the microsomal CLint at 1 μM in data set [1] was 60 µL/min/mg. In addition, on CYP3A4, the inhibition at 3 μM turned out to be 38%.
`C[C@@H]1CN(C(=O)[C@@H]2CN(c3ccc(Cl)nn3)C[C@H]2c2ccc(F)cn2)C[C@H](C)[C@@]1(O)c1ccc(Cl)cc1` [Example 5, (3R,4R,5S)-4-(4-chlorophenyl)-1-{[(3S,4S)-1-(6-chloropyridazin-3-yl)-4-(5-fluoropyridin-2-yl)pyrrolidin-3-yl]carbonyl}-3,5-dimethylpiperidin-4-ol]: in data set [1], the microsomal CLint at 1 μM is below 7 µL/min/mg. For the same molecule, the inhibition at 3 μM at CYP3A4 is 34%.
`C[C@@H]1CN(C(=O)[C@@H]2CN(c3ccc(=O)[nH]n3)C[C@H]2c2ccc(F)cn2)C[C@H](C)[C@@]1(O)c1ccc(Cl)cc1` [Example 6, 6-[(3S,4S)-3-{[(3R,4R,5S)-4-(4-chlorophenyl)-4-hydroxy-3,5-dimethylpiperidin-1-yl]carbonyl}-4-(5-fluoropyridin-2-yl)pyrrolidin-1-yl]pyridazin-3(2H)-one]: the inhibition at 3 μM on CYP3A4 was determined as 32%.
Consider `C[C@@H]1CN(C(=O)[C@@H]2CN(c3ccc(=O)n(C)n3)C[C@H]2c2ccc(F)cn2)C[C@H](C)[C@@]1(O)c1ccc(Cl)cc1` [Example 7, 6-[(3S,4S)-3-{[(3R,4R,5S)-4-(4-chlorophenyl)-4-hydroxy-3,5-dimethylpiperidin-1-yl]carbonyl}-4-(5-fluoropyridin-2-yl)pyrrolidin-1-yl]-2-methylpyridazin-3(2H)-one], for which the microsomal CLint at 1 μM in data set [1] was found to be 21 µL/min/mg. In addition, the inhibition at 3 μM at CYP3A4 was 19%.
The corresponding values for `C[C@@H]1CN(C(=O)[C@@H]2CN(c3cncc(F)c3)C[C@H]2c2ccc(Cl)cn2)C[C@H](C)[C@@]1(O)c1ccccn1` [Example 8, (3R,4R,5S)-1-{[(3S,4S)-4-(5-chloropyridin-2-yl)-1-(5-fluoropyridin-3-yl)pyrrolidin-3-yl]carbonyl}-3,5-dimethyl-4-pyridin-2-ylpiperidin-4-ol] are above 440 µL/min/mg and 94%.
The corresponding values for `C[C@@H]1CN(C(=O)[C@@H]2CN(c3cccnn3)C[C@H]2c2ccc(Cl)cn2)C[C@H](C)[C@@]1(O)c1ccccn1` [Example 9, (3R,4R,5S)-1-{[(3S,4S)-4-(5-chloropyridin-2-yl)-1-pyridazin-3-ylpyrrolidin-3-yl]carbonyl}-3,5-dimethyl-4-pyridin-2-ylpiperidin-4-ol] are 240 µL/min/mg and 68%.
For `C[C@@H]1CN(C(=O)[C@@H]2CN(c3ccc(=O)n(C)n3)C[C@H]2c2ccc(Cl)cn2)C[C@H](C)[C@@]1(O)c1ccc(Cl)cn1` [Example 10], the microsomal CLint at 1 μM in data set [1] amounted to 20.5 µL/min/mg. Moreover, the inhibition at 3 μM at CYP3A4 is 19%.
For `COc1ccc(C2CN(c3ccc(C#N)nn3)CC2C(=O)N2CC(C)C(O)(c3ccc(F)cc3)C(C)C2)cn1` (stereo not shown) [Example 16], in that order: below 45.5 µL/min/mg and 83%.
